# Values quoted from earlier work as cited in patent publication US20180177700A1, “HAIR REMOVAL COMPOSITIONS AND METHODS” (priority 2016, published 2018).
# Where a name gives a salt, the structure may show the parent alone.
# Legend:
# [1] = tested on: body hair; conditions: all different types of body hair (scalp, facial, axillary, pubic, leg)
# [2] = tested on: unwanted facial hair
# [3] = topical, 24 weeks, over 594 patients, versus placebo
SMILES,hair loss induced [1],time after drug application at which hair growth returned to baseline (transient inhibition) ([2]; after the drug application),"patients with ""Clear"" physician reported change in unwanted facial hair [2, 3]","patients with ""Improved"" physician reported change in unwanted facial hair [2, 3]","patients with ""Marked"" physician reported change in unwanted facial hair [2, 3]"
CS(=O)(=O)OCCCCOS(C)(=O)=O [busulfan],~100%,,,,
NCCCC(N)(C(=O)O)C(F)F (centres unmarked) [eflornithine hydrochloride],,eight,5%,26%,27%
